Test results published in patent US10844049B2, “GLP-1R agonists and uses thereof” (QILU REGOR THERAPEUTICS INC., priority 2018, dated 2020).

Columns and labels:
GLP1R = GLP1R (Homo sapiens, UniProt P43220); assay: GLP1R cAMP HTRF assay, HEK293/GLP-1R/CRE/Luc (HEK293T cells); format: cell-based; details: read-out: EC50
Outline: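 cAMP accumulation via HTRF after 30 min, 37 °C exposure of 1000 receptor-expressing cells/well to compound (0.5% DMSO final) in IBMX (500 μM)/0.1% BSA DPBS.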

[1] = Monkey oral pharmacokinetic (PK) study, non-naïve Cynomolgus male monkeys; format: in vivo; details: for plasma concentration-time profile: PO, over about 24 hours after oral dosing; for Tmax / bioavailability: male, cynomolgus monkey, plasma; for Tmax / bioavailability / AUC0-24 h / Cmax: oral
Experimental: Appropriate volumes of vehicles (e.g., 2% Tween 80 (v:v) and 0.5% MC (w:v) in saline or 0.5% MC (w:v) in water were then added into the mortar containing the ground compounds, and the mixture was then grinded with a pestle until a homogeneous paste was formed. Additional appropriate volumes of vehicles were added into the mortar containing each compound, and the mixture was grinded further with the pestle until a homogeneous suspension was obtained.
The rest of the vehicle was added to make up the final dosing volume of about 1 mg/mL or 2 mg/mL (i.e., final dosing volume of about 5 mL/kg), and the homogenous suspension was continuously stirred prior to and during the dosing.
Non-naïve Cynomolgus male monkeys (n=3/test article; sourced from Hainan Jingang Biotech Co., Ltd., Nayang Xmtan, Fucheng Town, Qiongshan District, Haikou City, Hainan Province, China); or non-naïve aged, obese, and diabetic male Macaca fascicularis monkeys (n=3/test article, Source: Kunming Biomed International Colony) were used in pre-clinical in vivo studies. All non-naïve Cynomolgus male monkeys were approximately 3 to 5 years old, weighed about 2.5-5 kg, and were within ±20% of the average body weight. All non-naïve aged, obese, and diabetic male Macaca fascicularis monkeys were approximately 12 to 20 years old, weighed about >8-12 kg.
All animals were fasted overnight before dosing, and the food were supplied approximately 4 hours post dose (with free access to water all the time).
Animals were restrained at designated time points for blood sampling. Approximately 500 μL of blood samples was taken via cephalic or saphenous vein into EDTA-K2 tubes. Blood samples were put on wet ice before centrifugation.
For oral administration (PO) of either Dose 1 or Dose 2: blood samples were collected at pre-dose, and at 15 min, 30 min, 1 hr, 2 hr, 4 hr, (6 hr for compounds 19 and 28 with cynomolgus monkeys only), 8 hr, 12 hr, and 24 hr post dose (i.e., 9 or 10 total time points for each compound at each dose).
The blood samples were centrifuged at approximately 2,000-4,000 rpm for about 10-15 minutes at 2-8′C, and each resulting plasma portion was then transferred into an individual tube.
LC-MS/MS methods were developed, and bioanalysis for the test articles in monkey plasma was performed according to the developed LC-MS/MS methods.
Undiluted plasma samples: An aliquot of 20-50 μL plasma sample was mixed with 200 μL of ACN or MeOH containing one of the internal standards (IS, e.g., Diclofenac or Terfenadine). The mixture was then vortexed for about 1-5 min, and centrifuged at about 4,000-5,800 rpm for about 10-15 min. An aliquot of 1 μL supernatant was used for LC-MS/MS analysis.
Pharmacokinetics parameters, including area under the curve (AUC0-t), maximum plasma concentration (Cmax), time to reach maximum plasma concentration (Tmax), oral bioavailability (F %), etc., were calculated using Phoenix software (Version 6.4) and non-compartment model.

Sequence of GLP1R (P43220 24-463): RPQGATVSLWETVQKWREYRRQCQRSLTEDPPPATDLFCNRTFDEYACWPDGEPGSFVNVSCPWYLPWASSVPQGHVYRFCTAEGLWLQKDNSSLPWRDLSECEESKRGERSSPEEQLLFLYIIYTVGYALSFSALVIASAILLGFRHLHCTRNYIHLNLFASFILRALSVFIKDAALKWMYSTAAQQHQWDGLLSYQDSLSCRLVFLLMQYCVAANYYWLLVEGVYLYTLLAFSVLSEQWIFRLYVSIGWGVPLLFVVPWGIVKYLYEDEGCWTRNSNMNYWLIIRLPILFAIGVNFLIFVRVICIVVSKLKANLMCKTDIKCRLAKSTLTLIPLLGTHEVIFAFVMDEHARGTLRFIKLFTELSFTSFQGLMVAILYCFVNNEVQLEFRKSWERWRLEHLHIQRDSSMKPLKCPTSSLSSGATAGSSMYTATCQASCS

Row | Compound | EC50 (GLP1R) [nM] | also measured
1 | O=C(O)c1ccc2nc(CN3CC=C(c4cncc(OCc5ccc(Cl)cc5F)n4)CC3)n(C[C@@H]3CCO3)c2c1 [Compound 34, (S)-2-((4-(6-(4-chloro-2-fluorobenzyloxy)pyrazin-2-yl)-5,6-dihydropyridin-1(2H)-yl)methyl)-1-(oxetan-2-ylmethyl)-1 h-benzo[d]imidazole-6-carboxylic acid] | ≤ 15 | –
2 | O=C(O)c1ccc2nc(CN3CC=C(c4cccc(OCc5ccc(Cl)cc5F)n4)CC3)n(C[C@@H]3CCO3)c2c1 [Compound 221, (S)-2-((6-((4-chloro-2-fluorobenzyl)oxy)-3′,6′-dihydro-[2,4′-bipyridin]-1′(2′H)-yl)methyl)-1-(oxetan-2-ylmethyl)-1H-benzo[d]imidazole-6-carboxylic acid] | ≤ 15 | –
3 | O=C(O)c1ccc2nc(CN3CCC(c4ccnc(OCc5ccc(Cl)cc5F)n4)CC3)n(C[C@@H]3CCO3)c2c1 [Compound 18, (S)-2-((4-(2-((4-chloro-2-fluorobenzyl)oxy)pyrimidin-4-yl)piperidin-1-yl)methyl)-1-(oxetan-2-ylmethyl)-1H-benzo[d]imidazole-6-carboxylic acid] | ≤ 15 | –
4 | O=C(O)c1ccc2nc(CN3CC=C(c4ccc(F)c(OCc5ccc(Cl)cc5F)c4)CC3)n(C[C@@H]3CCO3)c2c1 [Compound 29, (S)-2-((4-(3-((4-chloro-2-fluorobenzyl)oxy)-4-fluorophenyl)-3,6-dihydropyridin-1(2H)-yl)methyl)-1-(oxetan-2-ylmethyl)-1 h-benzo[d]imidazole-6-carboxylic acid] | ≤ 15 | plasma concentration-time profile [1]: sustained at a more constant level; Tmax ([1]; Dose 2): 1.2 h; bioavailability ([1]; Dose 2): 41%; AUC0-24 h ([1]; Dose 2): 21800 Arbitrary units; Cmax ([1]; Dose 2): 3380 Arbitrary unit
5 | O=C(O)c1ccc2nc(CN3CC=C(c4ccc(F)c(OCc5ccc(Cl)cc5F)c4)CC3)n(C[C@@H]3CCO3)c2c1F [Compound 238, (S)-2-((4-(3-((4-chloro-2-fluorobenzyl)oxy)-4-fluorophenyl)-3,6-dihydropyridin-1(2H)-yl)methyl)-7-fluoro-1-(oxetan-2-ylmethyl)-1H-benzo[d]imidazole-6-carboxylic acid] | ≤ 15 | –
6 | O=C(O)c1ccc2nc(CN3CCC(c4cccc(OCc5ccc(Cl)cc5F)c4)CC3)n(C[C@@H]3CCO3)c2c1 [Compound 239, (S)-2-((4-(3-((4-chloro-2-fluorobenzyl)oxy)phenyl)piperidin-1-yl)methyl)-1-(oxetan-2-ylmethyl)-1H-benzo[d]imidazole-6-carboxylic acid] | ≤ 15 | –
7 | O=C(O)c1ccc2nc(CN3CC=C(c4cccc(OCc5ccc(Cl)cc5F)c4)CC3)n(C[C@@H]3CCO3)c2c1F [Compound 237, (S)-2-((4-(3-((4-chloro-2-fluorobenzyl)oxy)phenyl)-3,6-dihydropyridin-1(2H)-yl)methyl)-7-fluoro-1-(oxetan-2-ylmethyl)-1H-benzo[d]imidazole-6-carboxylic acid] | ≤ 15 | –
8 | O=C(O)c1ccc2nc(CN3CC=C(c4ccc(F)c(OCc5ccc(Cl)cc5F)c4)CC3)n(C[C@@H]3CCO3)c2n1 [Compound 236, (S)-2-((4-(3-((4-chloro-2-fluorobenzyl)oxy)-4-fluorophenyl)-5,6-dihydropyridin-1(2H)-yl)methyl)-3-(oxetan-2-ylmethyl)-3H-imidazo[4,5-b]pyridine-5-carboxylic acid] | ≤ 15 | –
9 | O=C(O)c1ccc2nc(CN3CC=C(c4cccc(OCc5ccc(Cl)cc5F)c4)CC3)n(C[C@@H]3CCO3)c2n1 [Compound 224, (S)-2-((4-(3-((4-chloro-2-fluorobenzyl)oxy)phenyl)-3,6-dihydropyridin-1(2H)-yl)methyl)-3-(oxetan-2-ylmethyl)-3H-imidazo[4,5-b]pyridine-5-carboxylic acid] | ≤ 15 | –
10 | N#Cc1ccc(COc2cncc(C3CCN(Cc4nc5ccc(C(=O)O)cc5n4C[C@@H]4CCO4)CC3)n2)c(F)c1 [Compound 22, (S)-2-((4-(6-(4-cyano-2-fluorobenzyloxy)pyrazin-2-yl)piperidin-1-yl)methyl)-1-(oxetan-2-ylmethyl)-1 h-benzo[d]imidazole-6-carboxylic acid] | ≤ 150 | –
11 | O=C(O)c1ccc2nc(CN3CC=C(c4cccc(OCc5ccc(-n6ccnc6)cc5)n4)CC3)n(C[C@@H]3CCO3)c2n1 [Compound 245, (S)-2-((4-(6-(4-(1H-imidazol-1-yl)benzyloxy)pyridin-2-yl)-5,6-dihydropyridin-1(2H)-yl)methyl)-3-(oxetan-2-ylmethyl)-3H-imidazo[4,5-b]pyridine-5-carboxylic add] | ≤ 15 | –
12 | N#Cc1ccc(COc2nc(C3=CCN(Cc4nc5ccc(C(=O)O)cc5n4C[C@@H]4CCO4)CC3)ccc2F)c(F)c1 [Compound 222, (S)-2-((6-((4-cyano-2-fluorobenzyl)oxy)-5-fluoro-3′,6′-dihydro-[2,4′-bipyridin]-1′(2′H)-yl)methyl)-1-(oxetan-2-ylmethyl)-1H-benzo[d]imidazole-6-carboxylic acid] | ≤ 15 | –
13 | O=C(O)c1ccc2nc(CN3CC=C(c4cccc(OCc5ccc(Cl)cc5F)c4)CC3)n(C[C@@H]3CCO3)c2c1 [Compound 28, (S)-2-((4-(3-((4-chloro-2-fluorobenzyl)oxy)phenyl)-3,6-dihydropyridin-1(2H)-yl)methyl)-1-(oxetan-2-ylmethyl)-1 h-benzo[d]imidazole-6-carboxylic add] | ≤ 15 | plasma concentration-time profile [1]: sustained at a more constant level; Tmax ([1]; Dose 1): 3.3 h; bioavailability ([1]; Dose 1): 56.1%; AUC0-24 h ([1]; Dose 1): 24900 Arbitrary units; Cmax ([1]; Dose 1): 3910 Arbitrary unit
14 | O=C(O)c1ccc2nc(CN3CC=C(c4cccc(OCc5ccc(-c6cccnc6)cc5)n4)CC3)n(C[C@@H]3CCO3)c2c1 [Compound 242, (S)-1-(oxetan-2-ylmethyl)-2-((6-((4-(pyridin-3-yl)benzyl)oxy)-3′,6′-dihydro-[2,4′-bipyridin]-1′(2′H)-yl)methyl)-1H-benzo[d]imidazole-6-carboxylic add] | ≤ 15 | –
15 | O=C(O)c1ccc2nc(CN3CC=C(c4ccnc(OCc5ccc(Cl)cc5F)n4)CC3)n(C[C@@H]3CCO3)c2c1 [Compound 35, (S)-2-((4-(2-((4-chloro-2-fluorobenzyl)oxy)pyrimidin-4-yl)-3,6-dihydropyridin-1(2H)-yl)methyl)-1-(oxetan-2-ylmethyl)-1H-benzo[d]imidazole-6-carboxylic add] | ≤ 15 | –
16 | O=C(O)c1ccc2nc(CN3CCC(c4cncc(OCc5ccc(Cl)cc5F)n4)CC3)n(C[C@@H]3CCO3)c2c1 [Compound 21, (S)-2-((4-(6-(4-chloro-2-fluorobenzyloxy)pyrazin-2-yl)piperidin-1-yl)methyl)-1-(oxetan-2-ylmethyl)-1 h-benzo[d]imidazole-6-carboxylic acid] | ≤ 15 | –
17 | N#Cc1ccc(COc2cccc(C3=CCN(Cc4nc5ccc(C(=O)O)nc5n4C[C@@H]4CCO4)CC3)n2)c(F)c1 [Compound 225, (S)-2-((6-((4-cyano-2-fluorobenzyl)oxy)-3′,6′-dihydro-[2,4′-bipyridin]-1′(2′H)-yl)methyl)-3-(oxetan-2-ylmethyl)-3H-imidazo[4,5-b]pyridine-5-carboxylic add] | ≤ 15 | plasma concentration-time profile [1]: sustained at a more constant level; Tmax ([1]; Dose 2): 4 h; bioavailability ([1]; Dose 2): 9.93%; AUC0-24 h ([1]; Dose 2): 1500 Arbitrary units; Cmax ([1]; Dose 2): 184 Arbitrary unit
18 | N#Cc1ccc(COc2cncc(C3=CCN(Cc4nc5ccc(C(=O)O)cc5n4C[C@@H]4CCO4)CC3)n2)c(F)c1 [Compound 23, (S)-2-((4-(6-(4-cyano-2-fluorobenzyloxy)pyrazin-2-yl)-5,6-dihydropyridin-1(2H)-yl)methyl)-1-(oxetan-2-ylmethyl)-1 h-benzo[d]imidazole-6-carboxylic acid] | ≤ 15 | –
